Data set [1] deals with first line (1L) metastatic NSCLC. As to the kind of experiment: Real-world progression free survival analysis by CD155 gene expression, de-identified health records. The format is in vivo, human. The text has this: This example retrospectively evaluated the predictive value of CD155 expression for a clinical outcome using real-world data. […] Real-world progression free survival (rwPFS) is defined in this study as the time from treatment initiation until the first occurrence of progressive disease (PD) or death up to the end date of the same line of therapy. […] Otherwise, patients were censored at the last known follow up time. rwPFS is right censored at 36 months. The analysis was performed using de-identified health records of first line (1L) metastatic NSCLC patients treated with chemotherapy only, treated with pembrolizumab monotherapy, or treated with chemotherapy and pembrolizumab. A filter was applied to select for records where biopsies were obtained ≤12 months prior to the first dose of treatment. Records were excluded if the patient had EGF or ALK alterations.
The health records for each patient included information such as sex, race, smoking status, biopsy site, stage at time of diagnosis, subtype of lung cancer (adenocarcinoma or squamous cell carcinoma), tumor purity, PD-L1 expression, treatment (chemotherapy, pembrolizumab, or chemotherapy+pembrolizumab), clinical outcome, etc., as well as gene expression data for a number of targets (e.g., TIGIT, CD155, CD73). Chemotherapy for adenocarcinomas was cisplatin or carboplatin+pemetrexed. Chemotherapy for squamous cell carcinomas was either carboplatin and paclitaxel or nab-paclitaxel. Gene expression was quantified from RNA-seq data as transcript per million (tpm). Kaplan-Meier models were performed by gene and according to the following breakdowns: NSCLC subtype (all; adenocarcinoma only; squamous cell carcinoma only), PD-L1 expression (all; <1% TPS; 1-49% TPS; ≥50% TPS), and treatment (chemotherapy only, pembrolizumab only, chemotherapy and pembrolizumab). Results presented as Kaplan-Meier (KM) plots splitting high and low gene expressors into different groups, whereby high gene expression was defined as expression equal to or greater than a cut-off value determined by one of several threshold methodologies (e.g., median, 1st tertile (1st third vs last two thirds), 2nd tertile (two thirds vs. last third) and MaxStat (an outcome-oriented method providing a value of a cutpoint that corresponds to the most significant relation with outcome). Cox Proportional-Hazards tests were used to assess the effect of gene expression as a continuous variable, and hazard ratios were provided with each KM plot using the low gene expressor group as a reference.

In another data set the test system is MC38 tumors. As to the kind of experiment: Flow cytometry phenotyping of MC38 tumors and tdLN after treatment. Type of data set: in vivo, mouse. As to conditions: three days after the first OXA exposure. Here is the method: Methods—Mouse tumor-infiltrating lymphocyte and lymph node phenotyping. MC38 tumors were minced with scissors and dissociated with tumor digestion buffer [RPMI 1640 supplemented with 20% FBS, 0.25 mg/mL Collagenase D (Roche), and 100 KUnits/mL Type IV DNase I (Sigma-Aldrich)]. Single-cell tumor suspensions were passed through a 70 μm cell strainer and washed. Inguinal lymph nodes were collected from the same side as the tumor (tumor-draining lymph node, tdLN), minced, passed through a 70 μm cell strainer and washed. A total of 1×10^6 tumor or lymph node cells per well were incubated at room temperature (RT) with live-dead NIR (Invitrogen) and anti-mouse CD16/CD32 Fc block (BD Biosciences). For p15E tetramer staining, cells were washed and incubated with tetramer at RT. Cells were stained for surface and intracellular markers and analyzed by flow cytometry as indicated above.
In vivo experiments were performed at Arcus Biosciences in accordance with federal, state, and institutional guidelines and were approved by Arcus Biosciences' Institutional Animal Care and Use Committee. Female 6-8 week old C57BL/6J mice were purchased from Charles River Laboratories. Mice were injected subcutaneously on the right flank with 1×10^6 MC38 cells in 100 μL PBS. Once tumors were established (sized indicated in figure legends), mice were randomized into groups based on tumor size distribution. […] The dosing regimens for anti-PD-1 and anti-TIGIT were determined via receptor occupancy (RO) assays using commercially available a competitive anti-TIGIT antibody (clone GIGD7), a non-competitive PD-1 antibody (clone J43) as well as direct detection of both anti-TIGIT and anti-PD-1 via secondary antibody (Jackson Immunoresearch anti-mouse IgG, Fcγ subclass 2a specific). The dosing regimen for FTY720 was determined in naïve C57BL/6 females by examining lymphocyte frequencies and numbers in the blood 24 h after dosing. Tumor volume was monitored with digital calipers and volume was calculated using the formula: (Length×Width^2)/2. […]

For data set [2], the system named is MC38 cells. Nature of the data set: In vitro oxaliplatin treatment of MC38 cells, flow cytometry of PD-L1 and CD155. The format is cell-based, mouse. As to conditions: dying cells, ≥1 μM, 22 h. For orientation: In flow cytometry, cells or beads pass a laser one at a time.
Method: (§1) Lines and error represent the mean±standard deviation (SD) of biological triplicates. […] In FIG. 5B and FIG. 5C, lines and error represent the mean±SD of biological duplicates.
(§2) For flow cytometry, MC38 cells were plated in supplemented RPMI medium at 1×10^5 cells/well in a 12-well tissue culture plate. For CellTiter-Glo (Promega) analysis, cells were plated in supplemented RPMI medium at 5×10^3 cells/well in a 96-well white flat-bottom tissue culture plate. […] Data were normalized to PBS treated cells. For flow cytometry, cells were harvested using a cell scraper, and transferred into a 96-well round-bottom plate for staining. Cells were washed, incubated with live-dead aqua and anti-mouse CD16/CD32 Fc block at RT followed by cell surface staining with anti-mouse PD-L1 BV711 (clone MIH4, BD Biosciences) and anti-mouse CD155 BUV395 (clone 3F1, BD Biosciences) at 4° C. Cells were washed, fixed with IC fixation buffer (Invitrogen) at RT, washed again, and resuspended in PBS for flow cytometry.
The subject of data set [3] is MC38 cells. The settings on record: 1 μM, 72 hours.
Method: as §1, §2
Data set [4] concerns FcγR isotypes I, IIA, JIB, IIIA, and IIIB. The arrangement: dose or concentration left out as unconfirmed. As to conditions: compared with wild-type IgG1 control antibody; cited from earlier work.
For data set [5], the target named is T1, FcγR-IIIA (V158 high-affinity variant) (Homo sapiens, UniProt P08637, F176V).
T1 construct: expressed in transfected cells
T1 sequence (P08637 17-254 F176V): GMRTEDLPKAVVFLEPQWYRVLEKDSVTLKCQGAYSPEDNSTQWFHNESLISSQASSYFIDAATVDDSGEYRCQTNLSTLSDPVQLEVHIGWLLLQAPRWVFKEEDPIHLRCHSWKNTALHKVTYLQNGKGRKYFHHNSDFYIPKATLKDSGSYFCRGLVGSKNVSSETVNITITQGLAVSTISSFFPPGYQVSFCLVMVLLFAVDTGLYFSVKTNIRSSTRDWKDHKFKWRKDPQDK
The arrangement: dose or concentration left out as unconfirmed. The settings on record: cited from earlier work.

For data set [6], the system named is Jurkat cell line stably overexpressing human TIGIT. The settings on record: increasing concentrations up to 33 nM; cited from earlier work.

For pembrolizumab, the “Median real-world progression-free survival (rwPFS)” value in data set [1] (CD155 High, threshold method Median, PD-L1 TPS 1-49%) was 5.4 mo; in data set [1] (CD155 High, threshold method Median, PD-L1 TPS <1%) it was 13.8 mo; in data set [1] (CD155 High, threshold method Median, PD-L1 TPS All), 7.67 mo; in data set [1] (CD155 High, threshold method Median, PD-L1 TPS ≥50%), 8.53 mo; in data set [1] (CD155 High, threshold method q33, PD-L1 TPS 1-49%), 4.63 mo; in data set [1] (CD155 High, threshold method q33, PD-L1 TPS <1%), 8.1 mo. Moreover, the “Median real-world progression-free survival (rwPFS)” value in data set [1] (CD155 High, threshold method q33, PD-L1 TPS All) came out at 8.07 mo; in data set [1] (CD155 High, threshold method q33, PD-L1 TPS ≥50%), 8.63 mo; in data set [1] (CD155 High, threshold method q67, PD-L1 TPS 1-49%), 3.93 mo; in data set [1] (CD155 High, threshold method q67, PD-L1 TPS <1%), 13.8 mo; in data set [1] (CD155 High, threshold method q67, PD-L1 TPS All) it was 7.03 mo; in data set [1] (CD155 High, threshold method q67, PD-L1 TPS ≥50%) it was 7.23 mo. In addition, the “Median real-world progression-free survival (rwPFS)” value was found to be 6.2 mo in data set [1] (CD155 Low, threshold method Median, PD-L1 TPS 1-49%); 8.1 mo in data set [1] (CD155 Low, threshold method Median, PD-L1 TPS <1%); 10.3 mo in data set [1] (CD155 Low, threshold method Median, PD-L1 TPS All); 14.1 mo in data set [1] (CD155 Low, threshold method Median, PD-L1 TPS ≥50%); 9.67 mo in data set [1] (CD155 Low, threshold method q33, PD-L1 TPS 1-49%); 8.1 mo in data set [1] (CD155 Low, threshold method q33, PD-L1 TPS <1%). Further, the “Median real-world progression-free survival (rwPFS)” value turned out to be 13.3 mo in data set [1] (CD155 Low, threshold method q33, PD-L1 TPS All); 17.1 mo in data set [1] (CD155 Low, threshold method q33, PD-L1 TPS ≥50%); 7.1 mo in data set [1] (CD155 Low, threshold method q67, PD-L1 TPS 1-49%); 8.1 mo in data set [1] (CD155 Low, threshold method q67, PD-L1 TPS <1%); 9.67 mo in data set [1] (CD155 Low, threshold method q67, PD-L1 TPS All); 11.7 mo in data set [1] (CD155 Low, threshold method q67, PD-L1 TPS ≥50%).

`O=C1[O][Pt]2([NH][C@@H]3CCCC[C@H]3[NH]2)[O]C1=O` [OXA, oxaliplatin]: in the data set with MC38 tumors, the “TCF-1 positivity in tumoral CD8+ T cells” value was “increase”, the intratumoral monocytes result is recorded as “decreases” and the tumor neutrophils result is “increase”. Also, the “expression of PD-L1 and CD155 ligands” value with MC38 cells [2] was “increased expression”. The molecule also had a cancer cell death with MC38 cells [3] of approximately 100%.

B1: domvanalimab (antibody, chains of the INN, looked up, V domains shown)
VH: EVQLVESGGGLVQPGGSLRLSCAASGFTFSNFGMHWVRQAPGKGLEWVAFISSGSSSIYYADTVKGRFTISRDNAKNSLYLQMNSLRAEDTAVYYCARMRLDYYAMDYWGQGTMVTVSS
VL: DIQMTQSPSSLSASVGDRVTITCRASKSISKYLAWYQQKPGKAPKLLIYSGSTLQSGVPSRFSGSGSGTDFTLTISSLQPEDFATYYCQQHNEYPWTFGGGTKVEIK
notes: Fc-silent anti-TIGIT antibody with engineered IgG1 Fc
For B1, the “binding to FcγR isotypes” value in data set [4] is “no significant binding”. In data set [5], the “activity in FcγR-IIIA effector reporter bioassay” value was “inactive”. Further, in data set [6], the complement dependent cytotoxicity entry is listed as “No cytotoxicity”.

Source of the values: US20260266828A1, “BIOMARKERS FOR PREDICTING CANCER TREATMENT EFFICACY” (Arcus Biosciences, Inc., priority 2023, published 2026).
